Measurements: paper PMC5463454 (Cancer discovery, 2016)

Key:
[1] = tested on: melanoma cell line 537Mel (PTEN-null); assay: Xenograft growth; type: in vivo, mice; details: 537Mel PTEN-null melanoma xenograft, QD, dose-dependent
[2] = tested on: tumor cell line and patient-derived xenograft models; assay: Xenograft tumor growth inhibition; type: in vivo, mice; details: day 21, daily oral 100 mg/kg
[3] = tested on: target lesions of metastatic breast cancer; assay: [18F]FDG-PET metabolic response; type: in vivo, human; details: 600 mg
[4] = models with alterations in PTEN or PIK3CA, n = 21
[5] = models without alterations, n = 6

Compound: CC(C)NC[C@@H](C(=O)N1CCN(c2ncnc3c2[C@H](C)C[C@H]3O)CC1)c1ccc(Cl)cc1 [Ipatasertib]
- tumor growth in vivo [1]: decreases the growth
- mean %TGI (±SEM) [2, 4]: 95 ± 11%
- median %TGI [2, 4]: 97%
- mean %TGI (±SEM) [2, 5]: 38 ± 12%
- median %TGI [2, 5]: 44%
- metabolic PET response in one patient with MBC with AKT1 E17K mutation ([3]; HER2-negative MBC): complete metabolic PET response
- patients with target lesion metabolic PET response (SUVmax decrease ≥20%) ([3]; MBC, cycle 1, 8 of 9 evaluable): 89%
